The values that follow come from PubChem BioAssay (NCI).

One may read the GI50 as the concentration giving 50% growth inhibition. As usually defined, the TGI is the concentration giving total growth inhibition. A higher TGI goes with lower sensitivity of the cells.

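In this assay, cells in 96-well plates receive the compound at five concentrations for 48 hours. Endpoints are linearly interpolated between the surrounding concentrations. GI50 is the concentration that inhibits growth by half. TGI: concentration producing complete growth inhibition.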 Bounds are passed on as bounds.

Experiment in all cases: DTP human tumour cell line panel, 48 h
The subject of assay [1] is TK-10 renal.
For assay [2], the system named is HOP-92 NSCLC.
Assay [3] has as its system SK-MEL-2 melanoma.
Assay [4] deals with UACC-257 melanoma.
Assay [5] concerns SN12C renal.
For assay [6], the system named is UO-31 renal.
Assay [7] relates to SF-539 CNS.
Assay [8] has as its system NCI/ADR-RES ovarian.
The test system of assay [9] is BT-549 breast.
Assay [10] concerns DU-145 prostate.

Take `COC(=O)CCc1c(/C=C2\N=C(c3ccc[nH]3)C=C2OC)[nH]c(C)c1C(=O)OCc1ccccc1`: the GI50 was 0.873 µM in assay [1]; 0.197 µM in [2]; 0.304 µM in [3]; 1.16 µM in assay [4]; 0.442 µM in assay [5]; 0.155 µM in assay [6]. Moreover, the GI50 is 0.363 µM in assay [7], 0.437 µM in [8], 0.335 µM in assay [9] and 0.345 µM in assay [10]. Further, the TGI stood at 7.05 µM in [1]; 0.73 µM in assay [2]; 1.24 µM in [3]; 5.25 µM in assay [4]; 2.5 µM in assay [5]; 0.359 µM in assay [6]. Further, the concentration for total growth inhibition (TGI) is 1.83 µM in assay [7], 3.78 µM in assay [8], 2.57 µM in assay [9] and greater than 55.6 µM in assay [10].
Take `COc1ccc(CNC(=O)c2c(C)n([O-])c3cc(F)c(F)cc3[n+]2=O)cc1`: the GI50 in [1] was 14.1 µM; in assay [2], 14.9 µM; in assay [3], 15.4 µM; in assay [4] it was 10.4 µM; in assay [5] it was 14.2 µM; in [6], 12.8 µM. Also, the GI50 in assay [7] is 16.5 µM; in assay [8], 17 µM; in [9], 13.8 µM; in assay [10], 13.7 µM. In addition, the TGI in assay [1] was found to be 27.1 µM; in assay [2], 32 µM; in [3], 29.5 µM; in assay [4], 23.6 µM; in assay [5], 27.2 µM; in assay [6] it was 26.6 µM. For the same compound, the TGI is 30.6 µM in assay [7], 31.6 µM in [8], 26.8 µM in assay [9] and 26.5 µM in assay [10].
Take `O=[N+]([O-])c1ccc2nc(=S)[nH]n2c1`: the TGI in assay [1], in assay [2], in [3], in [4], in assay [5] and in [6] was greater than 100 µM in each case. Moreover, the TGI in [7], in assay [8], in assay [9] and in assay [10] was greater than 100 µM in each case.
On to `CN(C)c1ccc(/C=N/NC(=O)c2cnc3ccccc3c2)cc1`, for which the TGI in [1], in [2], in [3], in assay [4], in assay [5] and in [6] was greater than 100 µM each time. In addition, the TGI in assay [7], in [8], in assay [9] and in assay [10] was greater than 100 µM in each case.
In the case of `C[C@H](c1ccc(Cl)cc1[N+](=O)[O-])N1C(=O)c2cc(I)ccc2NC(=O)[C@H]1c1ccc(Cl)cc1`, the GI50 in assay [1] is greater than 100 µM; in assay [2], 2.79 µM; in [3] it was greater than 100 µM; in [4] it was 33.9 µM; in assay [5] it was greater than 100 µM; in [6] it was 2.54 µM. Moreover, the GI50 in assay [7], in assay [8], in assay [9] and in assay [10] was greater than 100 µM each time. Moreover, the TGI in [1], in assay [2], in assay [3], in [4], in assay [5] and in assay [6] was greater than 100 µM each time. Further, the TGI in assay [7], in assay [8], in assay [9] and in [10] was greater than 100 µM in each case.
Take `CN1CCN(Cc2ccc(NC(=O)c3cncc(C#Cc4ncc5ccccn45)c3)cc2C(F)(F)F)CC1`: the GI50 in assay [1] was 3.43 µM; in assay [2], 0.762 µM; in [3], 0.876 µM; in assay [4], 1.44 µM; in assay [5], 1.26 µM; in assay [6], 1.25 µM. The GI50 in [7] was 0.471 µM; in assay [8], 2.77 µM; in assay [9], 1.98 µM; in assay [10] it was 1.35 µM. Moreover, the TGI in assay [1] amounted to 8.21 µM; in assay [2], 2.37 µM; in [3], 3.82 µM; in [4], 4.57 µM; in assay [5], 4.41 µM; in assay [6] it was 3.72 µM. Further, the TGI in [7] came to 1.91 µM; in assay [8], 16 µM; in assay [9], 5.03 µM; in assay [10] it was 4.51 µM.
For the compound `CC1CC2(C)CC(=O)C1C1C(=O)N(CCN3CCOCC3)C(=O)C12` (centres undefined), the GI50 in [1], in assay [2], in assay [3], in assay [4], in [5] and in [6] was greater than 100 µM each time. Further, the GI50 in assay [7], in [8], in assay [9] and in [10] was greater than 100 µM in each case. The TGI in [1], in assay [2], in assay [3], in [4], in [5] and in [6] was greater than 100 µM throughout. The TGI in assay [7], in [8], in assay [9] and in assay [10] was greater than 100 µM in each case.
As to `CCCCCCCCCCCCCCCC(N)c1ccccc1` (centres undefined), the GI50 in [1] is 1.61 µM; in assay [2], 1.57 µM; in assay [3] it was 1.68 µM; in assay [4] it was 1.78 µM; in [5] it was 1.8 µM; in [6] it was 1.49 µM. Further, the GI50 in assay [7] is 1.69 µM; in [8], 1.85 µM; in assay [9], 1.63 µM; in assay [10] it was 1.75 µM. In addition, the TGI amounted to 3.1 µM in [1]; 3.23 µM in assay [2]; 3.35 µM in [3]; 3.4 µM in [4]; 3.51 µM in assay [5]; 2.97 µM in [6]. Moreover, the TGI in assay [7] is 3.17 µM; in [8], 3.66 µM; in [9], 3.11 µM; in assay [10], 3.22 µM.
For `COc1ccc(OC)c(/C=C/C(=O)c2ccc3cc(OC)ccc3c2)c1`, the GI50 was 3.84 µM in assay [1]; 12.4 µM in [2]; greater than 14.9 µM in [3]; 7.05 µM in assay [4]; 7.01 µM in assay [9]. In addition, the TGI was greater than 50 µM in [1]; greater than 50 µM in [2]; greater than 50 µM in assay [3]; greater than 27.8 µM in [4]; greater than 13.1 µM in [5]; greater than 15.2 µM in [6]. Moreover, the TGI is greater than 12.6 µM in [7], greater than 13.8 µM in [8], greater than 37.4 µM in assay [9] and greater than 20.7 µM in assay [10].
With `CCCCCCCCC(=O)NCCN(CCN)C(=O)CCCCCCCC`, the TGI in assay [1] worked out at 30 µM; in assay [2] it was 37.1 µM; in assay [3] it was 30.1 µM; in assay [4] it was 33.7 µM; in assay [5], 24.7 µM; in assay [6], 26.6 µM. Also, the TGI was 15.3 µM in [7], 31.1 µM in assay [8], 22.8 µM in assay [9] and 27.9 µM in assay [10].
`O=C1C=C(OCC=C(Cl)Cl)C(=O)c2ccccc21`: the GI50 in [1] is 61.2 µM; in assay [2], 2.68 µM; in [3], 2.34 µM; in assay [4], 2.15 µM; in assay [5], 2.61 µM; in assay [6], 3.15 µM. Also, the GI50 in assay [7] was 43.9 µM; in [8] it was 3.94 µM; in [9], 4.94 µM; in assay [10], 2.8 µM. For the same compound, the TGI is greater than 100 µM in assay [1]; 9.28 µM in assay [2]; 11 µM in [4]; 8.27 µM in assay [5]; 15.9 µM in assay [6]; greater than 100 µM in assay [7]. Also, the TGI in assay [8] was greater than 51.7 µM; in assay [9], greater than 30.3 µM; in assay [10], 8.94 µM.
Consider `CC(=O)Nc1cc(CN2CCCCC2)c(O)c2ncccc12`, for which the TGI in assay [1] was greater than 100 µM; in [2], greater than 100 µM; in [3] it was 23 µM; in assay [4], 88.7 µM; in [5], 70.9 µM; in assay [6] it was 46.8 µM. The TGI was greater than 100 µM in [7], greater than 100 µM in [8], greater than 100 µM in assay [9] and 75.7 µM in assay [10].
`CN1CCN(Cc2ccc(NC(=O)c3[nH]ncc3Nc3cc(OC4CCCC4)ncn3)cc2)CC1`: the GI50 in assay [1] is 11 µM; in assay [2] it was 6.69 µM; in assay [3] it was 3.75 µM; in assay [4], 3.42 µM; in assay [5], 3.37 µM; in assay [6], 1.4 µM. The GI50 in assay [7] was 1.9 µM; in assay [8] it was 3.68 µM; in assay [9] it was 1.75 µM; in [10], 2.35 µM. Further, the TGI in assay [1] was 23.7 µM; in assay [2], 18.6 µM; in assay [3], 15.3 µM; in [4] it was 9.6 µM; in assay [5] it was 13.8 µM; in assay [6] it was 11.2 µM. Also, the TGI turned out to be 5.02 µM in assay [7], 15 µM in assay [8], 3.97 µM in assay [9] and 12.9 µM in [10].
